Patent US11248006B2, “Macrocyclic derivative of pyrazol[3,4-d]pyrimidin-3-one, pharmaceutical composition and use thereof” (SHANGHAI DE NOVO PHARMATECH CO., LTD., priority 2017, dated 2022)

What was measured:
[1] = test system: Human osteosarcoma cell line MG63; assay: Cell proliferation assay (CCK-8 cell viability); format: cell-based; details: CCK-8, 72 hours incubation
Procedure: In the present disclosure, cell assays were used to assess the biological activity of the compound. Human osteosarcoma cell line MG63 (ATCC CRL-1427) was cultured in a 96-well plate of Dulbecco's Modified Eagle's medium, supplemented with 10% fetal bovine serum and 1% (v/v) L-glutamine, and the cultivation environment was 37° C. and 5% CO2. Compound concentrations ranged from 4.5 nM to 30 μM. The Wee1 inhibitor stock solution was dissolved in DMSO, added to the medium with an indicated concentration and incubated for 72 hours. Negative control cells were only treated with vehicle. In some assays, a known Wee1 inhibitor was added as a positive control. Cell viability was measured using a Cell Counting Kit-8 (CCK-8, Sigma-Aldrich) under the instruction of the product specification. The data was analyzed using Graphpad software to obtain a fitted curve of IC50 values against the compounds.

Wee1 [2] = target: T1, Wee1 (Homo sapiens (Human), UniProt P30291); assay: Wee1 enzyme catalysis assay (ATP-Glo Max kinase luminescence detection kit); format: biochemical; details: Wee1 enzymatic activity, 10 μM ATP, Poly (Lys, Tyr) substrate, 30° C. for 50 minutes
Procedure: In the present disclosure, Wee1 enzyme catalysis assay was carried out using the ATP-Glo Max kinase luminescence detection kit (Promega). Kinase activity was assessed by quantitative detection of the amount of ATP retained in the solution following the kinase reaction. The luminescent signal in the assay is proportional to the amount of ATP and inversely proportional to the kinase activity. The concentration of the compound in the assay ranged from 0.5 nM to 30 μM. The compound was dissolved in 10% DMSO, and 5 μL of the solution was added to 50 μL of the reaction, and the concentration of DMSO in the final reaction was 1%. The reaction was carried out at 30° C. for 50 minutes. 40 mM trishydroxymetyl aminomethane, pH 7.4, 10 mM MgCl2, 0.1 mg/ml BSA, 2 mM DTT, 0.1 mg/ml Poly (Lys, Tyr) substrate, 10 μM ATP and Wee1 were contained in the reaction mixture. After the enzymatic reaction, 50 μL of ATP-Glo Max kinase luminescence detection assay solution (Promega) was added and incubated for 15 minutes at room temperature. The luminescent signal was measured using a microplate reader. In some assays, a known Wee1 inhibitor was added as a positive control. Luminance data was analyzed using Graphpad software. The difference between the luminescence intensity in the absence of Wee1 and the luminescence intensity in the presence of Wee1 was defined as 100% activity (Lut−Luc). Using the luminescence intensity signal (Lu) in the presence of the compound, the % activity was calculated as follows: % Activity={(Lut−Lu)/(Lut−Luc)}×100%, wherein, Lu=luminous intensity of the compound Non-linear regression analysis was employed to plot the dose-effect curve of % activity value and the corresponding concentrations for the series of compounds. The equation is Y=B+(TB)/1+10((Log EC50−X)×Hill Slope), Y=% activity, B=minimum activity percentage, T=maximum activity percentage, X=logarithm of compound and Hill slope=slope factor or Hill coefficient. The IC50 value was determined by the concentration of a compound that is required to obtain 50% of the maximum effect.

Wee1 [3] = target: T1, Wee1; assay: Cell activity of Wee1 by p-CDK1Y15 ELISA assay in WiDr cells; format: cell-based; details: amount of p-CDK1Y15, human colon adenocarcinoma cell line WiDr, 24 hours incubation
Procedure: In the present disclosure, cellular assays were used to assess the biological activity of the compound. This assay was conducted using the human colon adenocarcinoma cell line WiDr. The activity of a specific Wee1 inhibitor was evaluated using p-CDK1Y15 ELISA assay method. The detailed assay method is described as follows:
WiDr cells were cultured in Dulbecco's Modified Eagle's medium containing 10% FBS at 37° C. and 5% CO2. Compound concentrations ranged from 0.5 nM to 30 μM. The compound was diluted, added to a 24-well plate and incubated with the cells for 24 hours. DMSO was used as a negative control. A known Wee1 inhibitor was added as a positive control in some assays. According to the instruction of the manufacturer, in the p-CDK1Y15 assay, cells were lysed and tested by a colorimetric ELISA kit to determine the amount of p-CDK1Y15. The optical density was measured using a spectrophotometer. The OD data was analyzed using Graphpad software to obtain a fitted curve of IC50 values against the compounds.

T1 sequence (P30291 whole entry): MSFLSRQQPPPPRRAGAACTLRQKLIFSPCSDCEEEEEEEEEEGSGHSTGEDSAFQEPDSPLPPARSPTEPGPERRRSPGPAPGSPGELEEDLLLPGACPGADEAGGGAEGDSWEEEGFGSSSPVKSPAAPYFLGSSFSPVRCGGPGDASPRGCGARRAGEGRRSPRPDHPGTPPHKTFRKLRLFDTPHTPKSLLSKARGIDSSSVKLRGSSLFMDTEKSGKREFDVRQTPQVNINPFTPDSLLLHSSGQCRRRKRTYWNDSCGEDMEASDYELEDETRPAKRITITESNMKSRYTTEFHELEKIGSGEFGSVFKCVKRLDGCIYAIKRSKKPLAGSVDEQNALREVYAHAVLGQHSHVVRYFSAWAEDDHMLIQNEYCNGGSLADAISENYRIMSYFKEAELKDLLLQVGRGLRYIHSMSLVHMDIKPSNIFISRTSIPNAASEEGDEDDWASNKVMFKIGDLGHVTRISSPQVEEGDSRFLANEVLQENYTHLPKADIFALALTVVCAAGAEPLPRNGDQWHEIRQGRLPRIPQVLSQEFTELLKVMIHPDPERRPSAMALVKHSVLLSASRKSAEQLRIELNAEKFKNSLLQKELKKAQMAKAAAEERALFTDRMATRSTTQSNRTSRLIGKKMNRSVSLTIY

SMILES | IC50 [1] [nM] | IC50 (Wee1 [2]) [nM] | IC50 (Wee1 [3]) [nM] | IC50 ([1]; Homo sapiens, MG-63, 72 h) [nM]
C=CCCCCN1C(=O)COc2ccc(-n3c4nc(SC)ncc4c(=O)n3CC=C)nc21 [Compound 3-1-1] | 1150 | 4.9 | 336 | –
CN1Cc2cc(Nc3ncc4c(=O)n5n(c4n3)-c3ccc4c(n3)N(CCC/C=C\C5)C(=O)CO4)ccc2C2(CC2)C1 [Compound 3-2-2] | 261 | 11 | 139 | –
CN1Cc2cc(Nc3ncc4c(=O)n5n(c4n3)-c3ccc4c(n3)N(CC/C=C\C5)C(=O)CO4)ccc2C2(CC2)C1 [Compound 3-2-3] | – | 7.6 | 326 | –
COc1cc(Nc2ncc3c(=O)n4n(c3n2)-c2ccc3c(n2)N(CCC/C=C\C4)C(=O)CO3)cc(N2CCN(C)CC2)c1 [Compound 3-3-13] | – | – | 68.8 | 82
CN1Cc2cc(Nc3ncc4c(=O)n5n(c4n3)-c3ccc4c(n3)N(CCC/C=C\C5)C(=O)CO4)ccc2C(C)(C)C1 [Compound 3-5-1] | – | 2.4 | – | 232
CC(C)(C)OC(=O)N1Cc2cc(Nc3ncc4c(=O)n5n(c4n3)-c3ccc4c(n3)N(CCC/C=C\C5)C(=O)CO4)ccc2C(C)(C)C1 [Compound 3-5-2] | 327 | 6.1 | – | –
CN1CCN(c2cc(Nc3ncc4c(=O)n5n(c4n3)-c3ccc4c(n3)N(CCC/C=C\C5)C(=O)CO4)cc3c2ccn3C)CC1 [Compound 3-7-16] | – | – | 31.4 | 99.1
CN1Cc2cc(Nc3ncc4c(=O)n5n(c4n3)-c3ccc4c(n3)N(CCO4)C(=O)CC/C=C\C5)ccc2C2(CC2)C1 [Compound 8-1-2] | – | 4.4 | – | 323
C=CCn1c(=O)c2cnc(SC)nc2n1-c1ccc2c(n1)N(CCCC#CCOC1CCCCO1)C(=O)CO2 (centres unmarked) [Compound 10-1-1] | 490 | 9.9 | – | –

Now from value to compound:

IC50 [1] [nM] | IC50 (Wee1 [2]) [nM] | IC50 (Wee1 [3]) [nM] | IC50 ([1]; Homo sapiens, MG-63, 72 h) [nM] | SMILES
– | 3.3 | 114 | 567 | COc1cc(Nc2ncc3c(=O)n4n(c3n2)-c2ccc3c(n2)N(CCC/C=C\C4)C(=O)CO3)ccc1N1CCN(C)CC1 [Compound 3-3-2]
– | 13 | 250 | 571 | CN1CCN(c2ccc(Nc3ncc4c(=O)n5n(c4n3)-c3ccc4c(n3)N(CCC/C=C\C5)C(=O)CO4)cc2)CC1 [Compound 3-3-7]
222 | 9.5 | 80.6 | – | CC(C)(C)OC(=O)N1CCC(n2ccc3cc(Nc4ncc5c(=O)n6n(c5n4)-c4ccc5c(n4)N(CCC/C=C\C6)C(=O)CO5)ccc32)CC1 [Compound 3-7-3]
– | 3.9 | 38.8 | 60.4 | CN1CCC(n2ccc3cc(Nc4ncc5c(=O)n6n(c5n4)-c4ccc5c(n4)N(CCC/C=C\C6)C(=O)CO5)ccc32)CC1 [Compound 3-7-5]
– | 9.6 | – | 554 | CN1CCC(n2ccc3cc(Nc4ncc5c(=O)n6n(c5n4)-c4ccc5c(n4)N(CCC/C=C\C6)C(=O)CO5)ccc32)C1 (centres unmarked) [Compound 3-7-6]
44.3 | 6.6 | 51.4 | – | CC(C)N1CCC(n2ccc3cc(Nc4ncc5c(=O)n6n(c5n4)-c4ccc5c(n4)N(CCC/C=C\C6)C(=O)CO5)ccc32)CC1 [Compound 3-7-7]
– | 12.3 | – | 654 | CN1CCn2c(cc3cc(Nc4ncc5c(=O)n6n(c5n4)-c4ccc5c(n4)N(CCC/C=C\C6)C(=O)CO5)ccc32)C1 [Compound 3-7-8]
– | 9.2 | – | 193 | CS(=O)(=O)CCN1CCC(n2ccc3cc(Nc4ncc5c(=O)n6n(c5n4)-c4ccc5c(n4)N(CCC/C=C\C6)C(=O)CO5)ccc32)CC1 [Compound 3-7-9]
– | 8.5 | – | 56.4 | O=C1COc2ccc3nc2N1CCC/C=C\Cn1c(=O)c2cnc(Nc4ccc5c(ccn5C5CCN(CCO)CC5)c4)nc2n1-3 [Compound 3-7-10]
– | – | 114 | 150 | CN1CCC(c2c[nH]c3cc(Nc4ncc5c(=O)n6n(c5n4)-c4ccc5c(n4)N(CCC/C=C\C6)C(=O)CO5)ccc23)CC1 [Compound 3-7-13]
211 | 7.9 | – | – | CC(C)N1CCC(n2ccc3cc(Nc4ncc5c(=O)n6n(c5n4)-c4ccc5c(n4)N(CCC/C=C\C6)C(=O)CO5)ccc32)CC1 [Compound 3-7-15]
